Here are results for 23 compounds from patent US20050271739A1, “Methods and compositions for accelerating alcohol metabolism” (priority 2004, published 2005).

Where “and” joins values, the source holds several entries; their conditions need not be identical. Equal values may be shown once.

The subject of series [1] is alcohol dehydrogenase. Description: Effect of hormonal compounds on enzyme activity of alcohol dehydrogenase. It is filed as biochemical. Also noted: Relative activity (%): concentration or dose not given beside the values. As to conditions: for Relative activity (%): Control = 100.0.
For series [2] the following is noted: blood alcohol reading; cited from earlier work.
Series [3] deals with blood alcohol. Description: In vivo test of alcohol metabolism by dog (blood alcohol reading). How it is done: Dog body weight: 13.9 kilograms. 42 grams of alcohol was administrated at time 0. ●—Control (i.e., no further treatment in the first 5 hours); ▪—10 grams pyruvate was administrated orally at 5 hours; ▴ 10 grams of alanine was administrated at 1.5 hour and then 5 hours.
In this example, the effectiveness of using compositions described above for accelerating alcohol metabolism was validated by in vivo tests with dogs. Six dogs (as described in Table 9) were used in the in vivo tests. The dogs were fasted 12 to 16 hours and then given 20% alcohol orally in a dose of 3 g/kg body weight. Approximately 1.5 hours were allowed for complete absorption and distribution of the alcohol. Blood samples were taken from the leg veins. The blood alcohol reading (BAR) was determined by measuring alcohol concentration in blood using the Sigma Aldrich alcohol assay method (Assay No. 333).

Series [4] deals with alcohol dehydrogenase. Description: Effect of thyroxine analogues on alcohol dehydrogenase activity. It is filed as biochemical. Conditions: for Relative Increase (%): None = 100.
Series [5] relates to malate-aspartate shuttle in rabbit liver mitochondria. The series can be described thus: NADH oxidation by malate-aspartate shuttle in liver mitochondria. It is filed as biochemical. Conditions: for Effect on oxidation of NADH: added to rabbit liver mitochondria.
Series [6] has as its system oxidation of ethanol and acetaldehyde. The series can be described thus: Absorbance change of pig liver extract without INT (340 nm) and with INT (500 nm). In kind it is biochemical. As to conditions: animal glandular extract, in the presence of INT. As for the experimental part: Phosphate buffer: 0.05 M (pH=7.5); INT: 12.7 mM; ethanol: 1.0% (V/V); aldehyde: 17.6 mM. No NAD was added.
As described in testing method f, in the presence of diaphorases, INT is reduced to forzaman, while NADH is oxidized to NAD in a 1:1 mole stoichiometric ratio. Therefore, the increase in the absorbance at 500 nm is directly proportional to the concentration of forzaman.
FIG. 3 and Table 4 show the change of absorbance at 500 nm versus time. […] Since NAD and NADH are high very difficult to purify, the costs of use of external high purity NAD has been proven to be prohibitively high. The present invention provides a cost-effective method for preparing the enzyme-coenzyme formulation.

Series [7] deals with aldehyde dehydrogenase. Description: Thyroxine stimulation of aldehyde dehydrogenase activity. It is filed as biochemical. From the text: Thyroxine has extremely high stimulating effect on the enzyme activity of alcohol dehydrogenases and aldehyde dehydrogenases. […] Some are as twice effective as thyroxine at the same concentration.
For series [8], the system named is Alcohol dehydrogenase (from Sigma Aldrich Chemical Company). Description: Alcohol dehydrogenase activity vs. NAD concentration. In kind it is biochemical. Conditions: Tris Buffer pH 8.5, ethanol 3% (V/V), ADH 5 units, 340 nm. How it is done:
Testing conditions: 0.05 M Tris Buffer (pH=8.5); ethanol=3% (V/V); Alcohol dehydrogenase (from Sigma Aldrich Chemical Company): 5 units. ADH activity was determined by measuring absorbance change at 340 nm.

For series [9], the system named is alcohol dehydrogenase prepared from yeast extract. Description: NAD regeneration through coupling reactions with yeast extract ADH, INT and diaphorase. It is filed as biochemical. As to conditions: 0.5 mM and 2.0 mM NAD, ethanol 1.0% (V/V), pH 7.5. As for the experimental part:
Phosphate buffer: 0.05 M (pH=7.5); ethanol: 1.0% (V/V). There was no absorbance change in the absence of NAD.
Phosphate buffer: 0.05 M (pH=7.5); INT: 12.7 mM; ethanol: 1.0% (V/V); NAD=2.0 mM; Diaphorase: 2 units.
In this example, the INT system was selected to illustrate the effectiveness of the regeneration of NAD by coupling compounds, since the reaction product, i.e., formazan, gives a maximum absorbance at 500 nm. Then the coupling reactions (see FIG. 6) can be directly quantified by spectrophotometric measurements.

[10] abbreviates: average of the dog tests, 5 or 10 g.

For `C[C@]12CCC(=O)C=C1CC[C@@H]1[C@@H]2C(=O)C[C@@]2(C)[C@H]1CC[C@]2(O)C(=O)CO` [Cortisone], in [1], the “Relative activity (%)” value is reported as 116%.
Take `CCO` [Alcohol, ethanol]: in series [2], the “Anesthetic effects (BAR)” value was “(0.30-0.40%)” and the “Death; LD50 (BAR)” value is given as “(0.45-0.50%)”.
For the compound `CC(=O)C(=O)[O-].[Na+]` [sodium pyruvate, Pyruvic acid sodium salt], in [3] (setting [10]), the “BAR Reduction Rate after first dose, Average” value turned out to be 211.4 ppm/hr and the “BAR Reduction Rate after second dose, Average” value was determined as 197.9 ppm/hr. Further, the “BAR Reduction Rate after first dose” value in series [3] (dog, oral, 5 g, first dosing at 266-410 min after ethanol 3 g/kg, sodium salt) is 212 ppm/hr and 160 ppm/hr and 253 ppm/hr and 252 ppm/hr. Further, the “BAR Reduction Rate after second dose” value in series [3] (dog, oral, 10 g, second dosing at 310-464 min, sodium salt) was 256 ppm/hr and 230 ppm/hr.
For the compound `N[C@@H](Cc1cc(Br)c(Oc2ccc(O)c(I)c2)c(Br)c1)C(=O)O` [3,5-dibromo-3′-iodo-thyronine], in series [4] (Dosage 17 μM), the “Absorbance Change (units/min @ 340 nm)” value turned out to be 0.48 units/min and the “Relative Increase (%)” value is 480%.
With `CC12CCC(=O)C=C1CCC1C2CCC2(C)C(O)CCC12` (centres unmarked) [Testerone], the “Relative activity (%)” value in series [1] was found to be 137%.
For `O=C(O)CCc1ccc(Oc2cc(I)c(O)c(I)c2)c(I)c1` [3,3′5′-triiodothyropropionic acid], in [4] (Dosage 17 μM), the “Absorbance Change (units/min @ 340 nm)” value is recorded as 0.865 units/min and the “Relative Increase (%)” value is recorded as 865%.
As for `C[C@]12CCC(=O)C=C1CC[C@@H]1[C@@H]2CC[C@]2(C)C(=O)CC[C@@H]12` [4-Androsterone-3,17-dione], the “Relative activity (%)” value in series [1] is recorded as 128%.
Regarding `O=C(O)CCc1cc(I)c(Oc2ccc(O)c(I)c2)c(I)c1` [3,3′5-triiodothyropropionic acid], in series [4] (Dosage 17 μM), the “Absorbance Change (units/min @ 340 nm)” value is 0.676 units/min and the “Relative Increase (%)” value was determined as 676%.
For `C[C@]12C[C@H](O)[C@H]3[C@@H](CCC4=CC(=O)CC[C@@]43C)[C@@H]1CC[C@@H]2C(=O)CO` [Corticosterone], in series [1], the “Relative activity (%)” value is listed as 112%.
Consider `O=C(O)Cc1cc(I)c(Oc2ccc(O)c(I)c2)c(I)c1` [3,3′5-triiodothyroacetic acid], for which, in [4] (Dosage 17 μM), the “Absorbance Change (units/min @ 340 nm)” value was determined as 0.715 units/min and the “Relative Increase (%)” value is recorded as 715%.
With `O=C([O-])CC(O)C(=O)[O-].[Na+].[Na+]` (racemic) [malate, DL-Hydroxybutanedioic acid], the “Effect on oxidation of NADH” value in [5] is “substantially increases the oxidation of NADH”. The “Relative effectiveness in NADH oxidation” value in series [5] (malate vs. aspartate) is recorded as “more effective than aspartate”.
Regarding `CC(=O)[C@H]1CC[C@H]2[C@@H]3CCC4=CC(=O)CC[C@]4(C)[C@H]3CC[C@]12C` [Progesterone], in [1], the “Relative activity (%)” value was 120%.
The same measure, in the same setting: the figure for `C[C@]12CC[C@@H](O)C[C@@H]1CC[C@@H]1[C@@H]2CC[C@]2(C)C(=O)CC[C@@H]12` [Androsterone] is 119%.
Regarding SodiumL-aspartate, the “Effect on oxidation of NADH” value in series [5] was “substantially increases the oxidation of NADH”.
On to `NC(Cc1ccc(Oc2ccc(O)cc2)cc1)C(=O)O` (racemic) [DL-thyronine], for which, in series [4] (Dosage 17 μM), the “Absorbance Change (units/min @ 340 nm)” value was found to be 0.535 units/min and the “Relative Increase (%)” value is recorded as 535%.
For the compound `O=[N+]([O-])c1ccc(-n2nc(-c3ccccc3)n[n+]2-c2ccc(I)cc2)cc1.[Cl-]` [INT], the “Effect of INT on oxidation of ethanol and acetaldehyde” value in series [6] is listed as “enhanced substantially”.
For the compound `N[C@@H](Cc1cc(I)c(O)c(I)c1)C(=O)O` [3,5-diiodo-l-thyrosine], the “Absorbance Change (units/min @ 340 nm)” value in series [4] (Dosage 170 μM) was found to be 0.256 units/min; in series [4] (Dosage 340 μM), 0.36 units/min. The “Relative Increase (%)” value in [4] (Dosage 170 μM) worked out at 256%; in series [4] (Dosage 340 μM) it was 360%.
With `O=C(O)CCc1cc(I)c(Oc2cc(I)c(O)c(I)c2)c(I)c1` [3,3,5,5′-tetraiodothyropropionic acid], in [4] (Dosage 17 μM), the “Absorbance Change (units/min @ 340 nm)” value is reported as 0.75 units/min and the “Relative Increase (%)” value was 750%.
`N[C@@H](Cc1cc(I)c(Oc2cc(I)c(O)c(I)c2)c(I)c1)C(=O)O` [L-thyroxine, L-Thyroxine]: the “Increase of enzyme activity” value in series [7] (as little as 2 μM) is given as above 100%. Also, the “Effect on alcohol and aldehyde dehydrogenases at high dosages” value in series [7] (high dosages) is “becomes an inhibitor of the enzymes”. Moreover, in [4] (Dosage 17 μM), the “Absorbance Change (units/min @ 340 nm)” value worked out at 0.30 units/min and the “Relative Increase (%)” value is recorded as 300%.
`C[C@]12CC[C@H]3[C@@H](CCC4=CC(=O)CC[C@@]43C)[C@@H]1CC[C@@H]2C(=O)CO` [Deoxycorticosterone]: in [1], the “Relative activity (%)” value was 115%.
Turning to `CC/C(=C(/CC)c1ccc(O)cc1)c1ccc(O)cc1` [Diethylstilbestrol], the “Increase of alcohol dehydrogenase activity” value in series [1] (as low as 10 μM) was “more than 100%”.
Turning to `C[C@]12CC[C@H](O)CC1=CC[C@@H]1[C@@H]2CC[C@]2(C)C(=O)CC[C@@H]12` [Dehydroepi-androsterone], the “Relative activity (%)” value in series [1] was 200%.
Turning to `NC(=O)c1ccc[n+]([C@@H]2O[C@H](COP(=O)([O-])OP(=O)(O)OC[C@H]3O[C@@H](n4cnc5c(N)ncnc54)[C@H](O)[C@@H]3O)[C@@H](O)[C@H]2O)c1` [NAD, Nicotinamide Adenine Dinucleotide (NAD)], in [8], the “Alcohol oxidation by alcohol dehydrogenase vs. NAD concentration” value was “increases with increasing NAD concentration”. Also, the “Absorbance on addition of NAD” value in series [9] is “increases the absorbance”.
